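Compound exposure: 48 hours, 5 concentrations, 96-well plates. TGI: concentration producing complete growth inhibition.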
Legend:
Assay in all cases: DTP human tumour cell line panel, 48 h
786-0 renal = test system: 786-0 renal
A498 renal = test system: A498 renal
A549 NSCLC = test system: A549 NSCLC
BT-549 breast = test system: BT-549 breast
CAKI-1 renal = test system: CAKI-1 renal
COLO 205 colon = test system: COLO 205 colon
DU-145 prostate = test system: DU-145 prostate
EKVX NSCLC = test system: EKVX NSCLC
HCC-2998 colon = test system: HCC-2998 colon
HCT-116 colon = test system: HCT-116 colon
HCT-15 colon = test system: HCT-15 colon
HOP-62 NSCLC = test system: HOP-62 NSCLC
HS 578T breast = test system: HS 578T breast
HT29 colon = test system: HT29 colon
IGROV1 ovarian = test system: IGROV1 ovarian
K-562 leukemia = test system: K-562 leukemia
KM12 colon = test system: KM12 colon
LOX IMVI melanoma = test system: LOX IMVI melanoma
M14 melanoma = test system: M14 melanoma
MALME-3M melanoma = test system: MALME-3M melanoma
MCF7 breast = test system: MCF7 breast
MDA-MB-231 breast = test system: MDA-MB-231 breast
MDA-MB-435 = test system: MDA-MB-435
MDA-N = test system: MDA-N
MOLT-4 leukemia = test system: MOLT-4 leukemia
NCI-H226 lung = test system: NCI-H226 lung
NCI-H23 lung = test system: NCI-H23 lung
NCI-H460 lung = test system: NCI-H460 lung
NCI-H522 lung = test system: NCI-H522 lung
NCI/ADR-RES ovarian = test system: NCI/ADR-RES ovarian
OVCAR-3 ovarian = test system: OVCAR-3 ovarian
OVCAR-4 ovarian = test system: OVCAR-4 ovarian
OVCAR-5 ovarian = test system: OVCAR-5 ovarian
OVCAR-8 ovarian = test system: OVCAR-8 ovarian
PC-3 prostate = test system: PC-3 prostate
RPMI-8226 leukemia = test system: RPMI-8226 leukemia
RXF 393 renal = test system: RXF 393 renal
SF-268 CNS = test system: SF-268 CNS
SF-539 CNS = test system: SF-539 CNS
SK-MEL-2 melanoma = test system: SK-MEL-2 melanoma
SK-MEL-28 melanoma = test system: SK-MEL-28 melanoma
SK-MEL-5 melanoma = test system: SK-MEL-5 melanoma
SK-OV-3 ovarian = test system: SK-OV-3 ovarian
SN12C renal = test system: SN12C renal
SNB-75 CNS = test system: SNB-75 CNS
SW-620 colon = test system: SW-620 colon
T-47D breast = test system: T-47D breast
TK-10 renal = test system: TK-10 renal
U251 CNS = test system: U251 CNS
UACC-257 melanoma = test system: UACC-257 melanoma
UACC-62 melanoma = test system: UACC-62 melanoma
UO-31 renal = test system: UO-31 renal
ACHN renal = test system: ACHN renal
HL-60(TB) leukemia = test system: HL-60(TB) leukemia
HOP-92 NSCLC = test system: HOP-92 NSCLC
SF-295 CNS = test system: SF-295 CNS
SNB-19 CNS = test system: SNB-19 CNS

For CCOC(=O)Nc1n[nH]nc1Cl, the TGI (786-0 renal) was over 100 µM, the TGI (A498 renal) was over 100 µM and the TGI (A549 NSCLC) was over 100 µM. The TGI (BT-549 breast) was over 100 µM, the TGI (CAKI-1 renal) was over 100 µM and the TGI (COLO 205 colon) was over 100 µM. For the same compound, the TGI (DU-145 prostate) was over 100 µM, the TGI (EKVX NSCLC) was over 100 µM and the TGI (HCC-2998 colon) was over 100 µM. The TGI (HCT-116 colon) was over 100 µM, the TGI (HCT-15 colon) was over 100 µM and the TGI (HOP-62 NSCLC) was over 100 µM. It also gave a TGI (HS 578T breast) of over 100 µM, a TGI (HT29 colon) of over 100 µM and a TGI (IGROV1 ovarian) of over 100 µM. It also gave a TGI (K-562 leukemia) of over 100 µM, a TGI (KM12 colon) of over 100 µM and a TGI (LOX IMVI melanoma) of over 100 µM. The TGI (M14 melanoma) was over 100 µM, the TGI (MALME-3M melanoma) was over 100 µM and the TGI (MCF7 breast) was over 100 µM. It also gave a TGI (MDA-MB-231 breast) of over 100 µM, a TGI (MDA-MB-435) of over 100 µM and a TGI (MDA-N) of over 100 µM. The TGI (MOLT-4 leukemia) was over 100 µM, the TGI (NCI-H226 lung) was over 100 µM and the TGI (NCI-H23 lung) was over 100 µM. The TGI (NCI-H460 lung) was over 100 µM, the TGI (NCI-H522 lung) was over 100 µM and the TGI (NCI/ADR-RES ovarian) was over 100 µM. For the same compound, the TGI (OVCAR-3 ovarian) was over 100 µM, the TGI (OVCAR-4 ovarian) was over 100 µM and the TGI (OVCAR-5 ovarian) was over 100 µM. For the same compound, the TGI (OVCAR-8 ovarian) was over 100 µM, the TGI (PC-3 prostate) was over 100 µM and the TGI (RPMI-8226 leukemia) was over 100 µM. It also gave a TGI (RXF 393 renal) of over 100 µM, a TGI (SF-268 CNS) of over 100 µM and a TGI (SF-539 CNS) of over 100 µM. For the same compound, the TGI (SK-MEL-2 melanoma) was over 100 µM, the TGI (SK-MEL-28 melanoma) was over 100 µM and the TGI (SK-MEL-5 melanoma) was over 100 µM. For the same compound, the TGI (SK-OV-3 ovarian) was over 100 µM, the TGI (SN12C renal) was over 100 µM and the TGI (SNB-75 CNS) was over 100 µM. For the same compound, the TGI (SW-620 colon) was over 100 µM, the TGI (T-47D breast) was over 100 µM and the TGI (TK-10 renal) was over 100 µM. For the same compound, the TGI (U251 CNS) was over 100 µM, the TGI (UACC-257 melanoma) was over 100 µM and the TGI (UACC-62 melanoma) was over 100 µM. The TGI (UO-31 renal) was over 100 µM.

For C/C(=N/NC(=S)N1CC2CCC(CC2)C1)c1cnccn1, the TGI (786-0 renal) was 5.65 µM, the TGI (A498 renal) was 14.2 µM and the TGI (A549 NSCLC) was 10.4 µM. For the same compound, the TGI (ACHN renal) was 10.1 µM, the TGI (BT-549 breast) was 16.7 µM and the TGI (CAKI-1 renal) was 11.3 µM. It also gave a TGI (COLO 205 colon) of 10.9 µM, a TGI (DU-145 prostate) of 13.8 µM and a TGI (EKVX NSCLC) of 12.3 µM. It also gave a TGI (HCC-2998 colon) of 13.6 µM, a TGI (HCT-116 colon) of 12.3 µM and a TGI (HCT-15 colon) of 16 µM. It also gave a TGI (HL-60(TB) leukemia) of 3.18 µM, a TGI (HOP-62 NSCLC) of 14.9 µM and a TGI (HOP-92 NSCLC) of 12.7 µM. The TGI (HS 578T breast) was 11.4 µM, the TGI (HT29 colon) was 12.2 µM and the TGI (IGROV1 ovarian) was 2.62 µM. It also gave a TGI (K-562 leukemia) of 0.472 µM, a TGI (KM12 colon) of 21 µM and a TGI (LOX IMVI melanoma) of 11.4 µM. It also gave a TGI (M14 melanoma) of 1.85 µM, a TGI (MALME-3M melanoma) of 10.3 µM and a TGI (MCF7 breast) of 12.1 µM. The TGI (MDA-MB-231 breast) was 16.8 µM, the TGI (MDA-MB-435) was 16.4 µM and the TGI (MDA-N) was 28.7 µM. It also gave a TGI (MOLT-4 leukemia) of 1.32 µM, a TGI (NCI-H226 lung) of 1.33 µM and a TGI (NCI-H23 lung) of 13.7 µM. It also gave a TGI (NCI-H460 lung) of 0.273 µM, a TGI (NCI-H522 lung) of 10.1 µM and a TGI (NCI/ADR-RES ovarian) of 0.054 µM. For the same compound, the TGI (OVCAR-4 ovarian) was 5.59 µM, the TGI (OVCAR-5 ovarian) was 24.6 µM and the TGI (OVCAR-8 ovarian) was 11.8 µM. It also gave a TGI (PC-3 prostate) of 8.46 µM, a TGI (RPMI-8226 leukemia) of 4.95 µM and a TGI (RXF 393 renal) of 7.78 µM. It also gave a TGI (SF-268 CNS) of 11 µM, a TGI (SF-295 CNS) of 12.1 µM and a TGI (SF-539 CNS) of 15.6 µM. For the same compound, the TGI (SK-MEL-2 melanoma) was 8.75 µM, the TGI (SK-MEL-28 melanoma) was 22.4 µM and the TGI (SK-MEL-5 melanoma) was 2.32 µM. For the same compound, the TGI (SK-OV-3 ovarian) was 11.9 µM, the TGI (SN12C renal) was 14.4 µM and the TGI (SNB-19 CNS) was 14.2 µM. The TGI (SNB-75 CNS) was 7.02 µM, the TGI (SW-620 colon) was 12.4 µM and the TGI (T-47D breast) was 13.3 µM. It also gave a TGI (TK-10 renal) of 16.7 µM, a TGI (U251 CNS) of 4.28 µM and a TGI (UACC-257 melanoma) of 14.3 µM. The TGI (UACC-62 melanoma) was 6.08 µM and the TGI (UO-31 renal) was 2.02 µM.

Reference: PubChem BioAssay (NCI)
